Reference: patent publication US6841682B2, “Heterocycles useful in the treatment of benign prostatic hyperplasia” (Janseen Pharmaceutica N.V., priority 1997, dated 2005)

What was measured:
α1d-AR = target: T1, α1d-AR (Homo sapiens, UniProt P25100); experiment: radioligand ([125I]-HEAT) receptor binding assay, COS cell membranes, α1d-AR; conditions: Tables A-J, [125I]-HEAT 50 pM
T1 construct: expressed in transfected cells; host or cells: COS cells (pcDNA3 vector, DEAE-dextran transient transfection); membrane preparation
T1 sequence (P25100 1-572): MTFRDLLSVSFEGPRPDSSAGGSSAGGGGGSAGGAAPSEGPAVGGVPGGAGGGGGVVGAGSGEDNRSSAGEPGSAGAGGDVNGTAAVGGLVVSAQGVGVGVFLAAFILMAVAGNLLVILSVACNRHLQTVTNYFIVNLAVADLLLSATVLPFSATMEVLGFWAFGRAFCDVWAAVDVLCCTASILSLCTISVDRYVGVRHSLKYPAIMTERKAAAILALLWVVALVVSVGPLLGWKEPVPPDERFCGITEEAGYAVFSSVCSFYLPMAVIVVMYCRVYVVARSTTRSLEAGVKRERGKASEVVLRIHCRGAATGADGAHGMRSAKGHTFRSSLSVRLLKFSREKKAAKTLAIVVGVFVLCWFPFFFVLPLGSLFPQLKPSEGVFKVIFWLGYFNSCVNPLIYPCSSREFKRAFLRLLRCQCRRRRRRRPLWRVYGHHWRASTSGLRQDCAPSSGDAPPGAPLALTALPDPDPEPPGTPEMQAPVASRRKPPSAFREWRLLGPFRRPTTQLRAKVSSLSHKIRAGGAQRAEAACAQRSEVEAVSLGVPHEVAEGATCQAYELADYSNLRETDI
Description: (§1) The first assay tested the ability of compounds of Formula I to bind to membrane bound receptors α1a-AR, α1b-AR and α1d-AR.
(§2) The DNA sequences of the three cloned human α1-AR subtypes have been published. […] We used published DNA sequence information to design-primers for use in RT-PCR amplification of each subtype to obtain cloned cDNAs. Human poly A+ RNA was obtained from commercially available sources and included hippocampus and prostate samples, sources which have been cited in the literature. For the primary screen a radio ligand binding assay was used which employed membrane preparations from cells expressing the individual cloned receptor cDNAs. Radiolabeled ligands with binding activity on all three subtypes (non-selective) are commercially available ([125I]-HEAT, [3H]-prazosin).
(§3) Each α1 receptor subtype was cloned from poly A+ RNA by the standard method of reverse transcription-polymerase chain reaction (RT-PCR). The following sources of polyA+ RNA were used for the cloning of the al receptor subtypes: α1a-AR, human hippocampus and prostate, α1b-AR, human hippocampus, α1d-AR, human hippocampus. The resulting cDNAs were cloned into the pcDNA3 mammalian expression vector (Invitrogen Corp., San Diego Calif.). Each DNA was sequenced for verification and to detect any possible mutations introduced during the amplification process. Any deviation in sequence from the published consensus for each receptor subtype was corrected by site-directed mutagenesis.
(§4) The three α1-AR subtypes (a, b, d) were transfected into COS cells using a standard DEAE-dextran procedure with a chloroquine shock. In this procedure, each tissue culture dish (100 mm) was inoculated with 3.5×10^6 cells and transfected with 10 μg of DNA. Approximately 72 hours post-transfection, the cells were harvested and COS membranes were prepared. Transfected COS cells from 25 plates (100 mm) were scraped and suspended in 15 mL of TE buffer (50 mM Tris-HCl, 5 mM EDTA, pH7.4). The suspension was disrupted with a homogenizer. It was then centrifuged at 1000×g for 10 minutes at 4° C. The supernatant was centrifuged at 34,500×g for 20 minutes at 4° C. The pellet was resuspended in 5 mL TNE buffer (50 mM Tris-HCl, 5 mM EDTA, 150 mM NaCl, pH7.4). The resulting membrane preparation was aliquoted and stored at −70° C. The protein concentration was determined following membrane solubilization with TritonX-100.
(§5) The ability of each compound to bind to each of the α1-AR subtypes was assessed in a receptor binding assay. [125I]-HEAT, a non-selective α1-AR ligand, was used as the radiolabeled ligand. Each well of a 96-well plate received: 140 μL TNE, 25 μL [125I]-HEAT diluted in TNE (50,000 cpm; final concentration 50 pM), 10 μL test compound diluted in DMSO (final concentration 1 pM-10 μM), […] COS cell membrane preparation expressing one of the three α1-AR subtypes (0.05-0.2 mg membrane protein). The plate was incubated for 1 hour at room temperature and the reaction mixtures were filtered through a Packard GF/C Unifilter filter plate. The filter plate was dried for 1 hour in a vacuum oven. Scintillation fluid ([…]) was added to each well, and the filter plate was counted in a Packard Topcount scintillation counter. Data was analyzed using GraphPad Prism software.
(§6) Tables A-J list the IC50 values expressed in nanomolar concentration for select compounds of the invention in all receptor subtypes.

α1b-AR = target: T2, α1b-AR (Homo sapiens, UniProt P35368); experiment: radioligand ([125I]-HEAT) receptor binding assay, COS cell membranes, α1b-AR; conditions: Tables A-J; [125I]-HEAT 50 pM, COS membranes; read-out: α1b IC50
T2 construct: expressed in transfected cells; host or cells: COS cells (pcDNA3 vector, DEAE-dextran transient transfection); membrane preparation
T2 sequence (P35368 1-520): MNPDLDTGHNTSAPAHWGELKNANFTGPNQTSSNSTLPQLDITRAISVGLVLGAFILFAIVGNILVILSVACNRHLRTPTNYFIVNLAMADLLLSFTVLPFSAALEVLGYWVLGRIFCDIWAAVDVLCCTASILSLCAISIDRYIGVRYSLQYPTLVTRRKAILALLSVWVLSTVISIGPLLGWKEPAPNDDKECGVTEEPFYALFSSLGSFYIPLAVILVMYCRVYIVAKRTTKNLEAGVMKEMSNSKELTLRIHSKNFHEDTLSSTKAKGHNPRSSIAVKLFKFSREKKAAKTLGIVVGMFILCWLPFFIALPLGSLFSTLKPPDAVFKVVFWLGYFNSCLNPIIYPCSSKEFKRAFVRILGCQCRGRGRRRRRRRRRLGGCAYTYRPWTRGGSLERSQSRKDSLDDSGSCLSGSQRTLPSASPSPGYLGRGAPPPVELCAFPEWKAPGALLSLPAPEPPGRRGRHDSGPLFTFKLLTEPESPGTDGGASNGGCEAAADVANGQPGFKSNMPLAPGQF
Description: as §1, §2, §3, §4, §5, §6

rat aorta tissues = experiment: norepinephrine-induced contractile response of rat aorta tissue; assay type: tissue-based; conditions: rat aortic rings, 37° C., pH 7.4, read-out: IC50, inhibition of contractile response in aortic tissue
Description: The contractile responses of rat prostatic tissue and rat aorta tissues were examined in the presence and absence of antagonist compounds. As an indication of the selectivity of antagonism, test compound effects on vascular smooth muscle contractility (α1b-AR and α1d-AR) were compared to the effects on prostatic smooth muscle (α1a-AR). Strips of prostatic tissue and aortic rings were obtained from Long Evans derived male rats weighing 275 grams and sacrificed by cervical dislocation. The prostate tissue was placed under 1 gram tension in a 10 ml bath containing phosphate buffered saline pH 7.4 at 32° C. and isometric tension was measured with force transducers. The aortic tissue was placed under 2 grams tension in a 10 ml bath containing phosphate buffered saline pH 7.4 at 37° C. The ability of test compound to reduce the norepinephrine-induced contractile response by 50% (IC50) was determined.

| IC50 (α1d-AR) | IC50 (α1b-AR) | IC50 (rat aorta tissues) | SMILES |
| --- | --- | --- | --- |
| 0.177 µM | 3.92 µM | 31.9 µM | CC(C)Oc1ccccc1N1CCN(Cc2cc(CN3CCCCC3=O)n[nH]2)CC1 [Compound 3] |
| 0.211 µM | 8.5 µM | 13.5 µM | CC(C)Oc1ccccc1N1CCN(Cc2ncc(CN3CCCCC3=O)s2)CC1 [Compound 16] |
